Test results from patent US8779158B2, “Trisubstituted pyrazoles as acetylcholine receptor modulators” (Janssen Pharmaceutica NV, priority 2008, dated 2014).

What was measured:
[1] = biological target: T1, hα7-wt nAChR (Homo sapiens, UniProt P36544); assay: Ca2+ flux imaging (FDSS) (Protocol B), potentiation of the choline response; format: cell-based; details: Ca2+ assay as described in D.1; for EC50: "<5" = activity did not reach a top plateau at maximal concentration
T1 construct: expressed in transfected cells
T1 sequence (P36544 23-502): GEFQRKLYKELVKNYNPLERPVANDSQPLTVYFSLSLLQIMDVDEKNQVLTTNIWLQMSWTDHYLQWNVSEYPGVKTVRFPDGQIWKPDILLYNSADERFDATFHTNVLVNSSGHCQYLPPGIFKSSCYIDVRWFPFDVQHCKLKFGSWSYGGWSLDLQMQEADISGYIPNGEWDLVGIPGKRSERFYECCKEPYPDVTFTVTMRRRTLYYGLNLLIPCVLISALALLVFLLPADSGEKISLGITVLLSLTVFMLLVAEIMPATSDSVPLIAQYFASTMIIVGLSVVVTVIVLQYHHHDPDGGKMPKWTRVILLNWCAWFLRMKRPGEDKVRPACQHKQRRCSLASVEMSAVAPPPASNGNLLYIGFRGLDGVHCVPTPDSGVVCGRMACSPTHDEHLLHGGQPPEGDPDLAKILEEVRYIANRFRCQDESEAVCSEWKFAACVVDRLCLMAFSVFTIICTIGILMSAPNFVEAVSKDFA
Protocol: Ca^2+ Flux Imaging (FDSS) (Protocol B)
• Hanks buffered saline solution (HBSS, Invitrogen, Belgium), supplemented with 10 mM HEPES (Invitrogen, Belgium), CaCl2 to a final concentration of 5 mM, 0.1% Bovine serum albumin (Sigma-Aldrich NV, Belgium). b) Calcium-Sensitive Dye—Fluo-4AM • Fluo-4AM (Molecular Probes, USA) was dissolved in DMSO containing 10% Pluronic acid (Molecular Probes, USA) to give a stock solution which was diluted in assay buffer supplemented with 5 mM probenicid (Sigma, Aldrich NV, Belgium) to give a final concentration of 2 μM. c) 384-Well Plates • Black 384 well plate black/clear plates, PDL pre-coated (Corning, Incorporated, USA) d) Calcium Flux Measurement • A Functional drug screening system (FDSS, Hamamatsu) was used to measure intracellular free-calcium flux signals. Method
Monolayers of hα7-wt nAChR-expressing cells were grown in multi-well plates, in particular black-sided, transparent bottomed 384 well plates coated with poly-D-lysine for 24 hours prior to loading with a fluorescent calcium indicator, in a particular embodiment loading with fluo-4AM for up to 120 minutes.
PAM activity was detected in real time by applying the compounds to be tested to the loaded cells along with a α7 nicotinic receptor agonist during constant monitoring of cellular fluorescence in a FDSS. Compounds giving peak fluorescent responses greater than the response due to agonist alone, were considered to be α7 nAChR PAM's. In a particular embodiment, the α7 nicotinic receptor agonist was choline, a more particular embodiment choline applied at a sub-maximal concentration of 100 μM. In a further setting of the present invention the compounds to be tested were applied prior to the α7 nicotinic receptor agonist, in a particular embodiment up to 10 minutes prior to the agonist.
A control response to choline was calculated on each plate from the difference in peak in fluorescence in wells receiving either choline or assay buffer alone. Compounds of the present invention were tested at a concentration range from 0.01 μM to 30 μM. Compounds were considered to have an interesting activity when they potentiated the choline signal at least with 200% when tested at a concentration of 30 μM (the efficacy of 100 μM choline was defined as 100% in the absence of a PAM). An EC50 (or pEC50) was determined as a concentration relating to half the maximal effect, when a clear sigmoidal curve with top plateau was obtained.

[2] = biological target: T2, hα7-wt nAChR-expressing GH4C1 cells (Homo sapiens, UniProt P36544); assay: Patch-clamp current recording (whole-cell voltage clamp), potentiation of the choline current and PAM type; format: cell-based; design: key: Type 0 compounds minimally enhance the effect size of the current elicited by 1 mM choline.; Type 1 compounds enhance the effect size of the current elicited by 1 mM choline but minimally alter the kinetics of the receptor.; Type 2 compounds enhance the effect size of the current elicited by 1 mM choline while reducing the rate and/or the extent of desensitization.; Type 3 compounds enhance the effect size of the current elicited by 1 mM choline. When tested at higher concentrations up to 10 μM they completely inhibit desensitization, in particular a 1 mM choline application of 250 milliseconds.; Type 4 compounds allow for an initial desensitization of the receptor followed by a re-opening of the receptor during agonist application; details: 1 mM choline
T2 construct: expressed in transfected cells
T2 sequence (P36544 23-502): as above
Protocol: The compounds of the present invention are classified as type 1-4, based on qualitative kinetic properties, as determined by whole-cell voltage-clamp recordings. This classification is based on the effect of an α7 PAM compound, as described hereinbefore, on the signal elicited by an agonist application. In particular, said agonist is choline at a concentration of 1 mM. In a preferred experimental setting, said α7 PAM compound and choline are simultaneously applied to the cell, as described hereinafter. Desensitization is defined as the closure of the receptor upon activation during the application of the agonist in whole-cell voltage-clamp electrophysiology measurements seen as the reduction of the […] current after initial activation by the agonist.
The definition of the PAM types 1-4 is described hereinafter: • Type 0 compounds minimally enhance the effect size of the current elicited by 1 mM choline. • Type 1 compounds enhance the effect size of the current elicited by 1 mM choline but minimally alter the kinetics of the receptor. In particular, the rate and the extent of desensitization, elicited by the agonist, is not affected. The compound-modulated response to 1 mM choline, therefore, is a close to linear scaling of the 1 mM choline response in absence of the α7 PAM compound. • Type 2 compounds enhance the effect size of the current elicited by 1 mM choline while reducing the rate and/or the extent of desensitization. • Type 3 compounds enhance the effect size of the current elicited by 1 mM choline. […] At low-potency concentrations of the α7 PAM compound, the agonist-induced activation, which is followed by desensitization, can still be separated from the compound-induced re-opening as an initial inward current-maximum. At higher potency concentrations of the α7 PAM compound, the re-opening occurs faster than the closure due to desensitization so that the initial current-maximum disappears.
A compound was considered to have interesting PAM-like activity when the potentiation of the peak current was at least 200% compared to the control choline response (=100%). Such compounds are classified as belonging to a particular PAM type in the Experimental Part. Compounds not meeting the condition are not classified as belonging to a particular PAM-type.
The compounds also have a potentiating effect on the response to choline when measured by whole-cell patch clamp electrophysiology in GH4C1 cells stably over-expressing the human wild-type α7 receptor.
Patch-Clamp Current Recording
Patch-clamp recording from mammalian cells has provided a powerful means of assessing the function of membrane-bound proteins thought to be subunits of ligand-gated ion channels. Activation of such proteins by endogenous or exogenous ligands cause opening of a pore associated with the receptor through which ions flow down their electrochemical gradient. In the case of the hα7-wt nAChR-expressing GH4C1 recombinant cell line the preferential permeability to calcium of this receptor means that calcium flows into the cell upon activation by ACh, choline and other nicotinic ligands giving rise to a calcium current. Since this receptor rapidly desensitizes in the presence of agonist it is important an application system is used which is capable of very rapid switching of solutions (<100 ms) to prevent partial or full desensitisation of receptor responses coincident with the time of agonist application. Consequently, a second convenient technique to assess the enhancement of nicotinic efficacy is patch-clamp recording from hα7-wt nAChR-expressing GH4C1 cells coupled with a rapid-application system.
• The external recording solution consisted of 152 mM NaCl, 5 mM KCl, 1 mM MgCl2, 1 mM Calcium, 10 mM HEPES; pH 7.3. […]

SMILES | EC50 [1] [µM] | Emax ([1]; read-out: % Efficacy) [%] | PAM type [2] | Emax at 30 µM ([1]; @ 30 μM, read-out: % Efficacy) [%]
CC[C@H](O)Cn1nc(Nc2cc(OC)cc(C(F)(F)F)c2)cc1-c1ccnc(C)c1C [compound 53] | 1.07 | 482 | 0 | –
CNC(=O)Cn1nc(Nc2cccc(Cl)c2F)cc1-c1ccnc(COC)c1 [compound 106] | 1.95 | – | 2 | –
CCNC(=O)Cn1nc(Nc2ccc(F)c(F)c2F)cc1-c1ccnc(C)c1 [compound 125] | 0.933 | 972 | 2 | –
COCc1cc(-c2cc(Nc3ccc4c(c3)OC(F)(F)O4)nn2CCC(=O)N(C)C)ccn1 [compound 96] | 0.182 | – | 3 | –
Cc1cc(-c2cc(Nc3cccc(Cl)c3F)nn2CCC(=O)N(C)C)ccn1 [compound 124] | 0.977 | – | 1 | –
CCNC(=O)Cn1nc(Nc2cccc(C(F)(F)F)c2)cc1-c1cc(C)nc(C)c1 [compound 155] | 0.55 | 576 | 2 | –
CC[C@H](O)Cn1nc(Nc2cc(Cl)cc(OC)c2)cc1-c1ccnc(C)c1 [compound 122] | 1.02 | – | 1 | –
CCNc1cc(-c2cc(Nc3ccc(F)c(F)c3)nn2C[C@H](C)O)ccn1 [compound 62] | 1.32 | – | 1 | –
CC[C@H](O)Cn1nc(Nc2ccc(F)c(F)c2)cc1-c1ccnc(COC)c1 [compound 6, (alphaS)-3-[(3,4-difluorophenyl)amino]-alpha-ethyl-5-[2-(methoxymethyl)-4-pyridinyl]-1H-pyrazole-1-ethanol] | 1.15 | – | 2 | –
CCNC(=O)Cn1nc(Nc2cccc(OC(F)(F)F)c2)cc1-c1cc(C)nc(C)c1 [compound 139] | 0.646 | 710 | – | –
CCNC(=O)Cn1nc(Nc2cccc(C(F)(F)F)c2)cc1-c1cccnc1 [compound 18] | > 10 | – | – | 592
CCNC(=O)Cn1nc(Nc2ccc(F)c(C(F)(F)F)c2)cc1-c1ccc2c(c1)OCCO2 [compound 81] | 0.214 | – | – | –
Cc1cc(-c2cc(Nc3cc(F)cc(Cl)c3)nn2C[C@H](C)O)ccn1 [compound 42] | 1.12 | 200 | – | –
CCNc1cc(-c2cc(Nc3ccc(F)c(F)c3F)nn2C[C@H](C)O)ccn1 [compound 133] | 0.776 | 409 | – | –
Cc1cc(-c2cc(Nc3cccc(C(F)(F)F)c3)nn2CC(=O)NC2CC2)cc(C)n1 [compound 150] | 0.525 | 568 | – | –
CCNC(=O)Cn1nc(Nc2cc(F)c(F)c(F)c2)cc1-c1ccc2c(c1)OCCO2 [compound 78] | 0.302 | – | – | –
Cc1cc(-c2cc(Nc3cccc(C(F)(F)F)c3)nn2CC(=O)NC2CCC2)cc(C)n1 [compound 144] | 0.437 | 444 | – | –

SMILES | EC50 [1] [µM] | Emax ([1]; read-out: % Efficacy) [%] | PAM type [2] | Emax at 30 µM ([1]; @ 30 μM, read-out: % Efficacy) [%]
CNC(=O)Cn1nc(Nc2ccc(F)c(C(F)(F)F)c2)cc1-c1ccc2c(c1)OCCO2 [compound 75] | 0.219 | – | – | –
CCNC(=O)Cn1nc(Nc2ccc(F)c(F)c2F)cc1-c1cc(C)nc(C)c1 [compound 148] | 0.468 | – | – | –
CC[C@H](O)Cn1nc(Nc2cc(F)cc(F)c2)cc1-c1ccnc(Cl)c1 [compound 47] | 0.437 | – | – | –
CNC(=O)Cn1nc(Nc2ccc(F)c(F)c2F)cc1-c1cc(C)nc(C)c1 [compound 120] | 1.15 | 969 | – | –
CCNc1cc(-c2cc(Nc3ccc(F)c(F)c3)nn2C[C@H](C)O)cc(C)n1 [compound 66] | > 10 | – | – | –
COc1cc(Nc2cc(-c3cc(C)nc(C)c3)n(CC(=O)NC3CC3)n2)cc(C(F)(F)F)c1 [compound 138] | 0.617 | 686 | – | –
CCNc1cc(-c2cc(Nc3cc(OC)cc(C(F)(F)F)c3)nn2C[C@H](C)O)ccn1 [compound 63] | 3.98 | 700 | – | –
CCNC(=O)Cn1nc(Nc2cc(F)cc(C(F)(F)F)c2)cc1-c1ccncc1C [compound 31] | 2.69 | – | – | –
CCNC(=O)Cn1nc(Nc2cc(F)c(F)c(F)c2)cc1-c1cc(C)nc(C)c1 [compound 167] | 0.263 | 762 | – | –
CNC(=O)Cn1nc(Nc2cc(F)c(F)c(F)c2)cc1-c1cc(C)nc(C)c1 [compound 127] | 1.02 | 616 | – | –
CC[C@H](O)Cn1nc(Nc2cc(OC)cc(C(F)(F)F)c2)cc1-c1ccnc(COC)c1 [compound 99] | 0.955 | – | – | –
COc1cc(Nc2cc(-c3ccnc(C)c3C)n(CCC(=O)N(C)C)n2)cc(C(F)(F)F)c1 [compound 52] | 0.912 | – | – | –
Cc1cc(-c2cc(Nc3cc(F)cc(Cl)c3)nn2CCC(=O)N(C)C)ccn1 [compound 41] | 0.389 | – | – | –
CCNC(=O)Cn1nc(Nc2ccc3c(c2)OC(F)(F)O3)cc1-c1ccc2c(c1)OCCO2 [compound 98] | 0.324 | – | – | –
CNC(=O)Cn1nc(Nc2ccc(F)c(F)c2)cc1-c1ccnc(NC)c1 [compound 61] | > 10 | – | – | –
CC[C@H](O)Cn1nc(Nc2cccc(C(F)(F)F)c2)cc1-c1ccnc(COC)c1 [compound 113] | 1.32 | – | – | –
CCNC(=O)Cn1nc(Nc2ccc(F)c(F)c2)cc1-c1ccncc1 [compound 20] | > 10 | – | – | –
